Results published in US12435031B2, “Compound with broad-spectrum antibacterial activity and its antibacterial composition” (CHINA AGRICULTURAL UNIVERSITY, priority 2023, dated 2025).
In brackets after ≈: the same amount, converted by molar mass. Where two headings read alike, the source gives them in different places.

System: Clostridium perfringens
Test: microbe, parasite or virus in culture
Type: cell-based
Details: Clostridium perfringens
[1] = read-out: MIC value against Clostridium perfringens, strain A3-1 (A-type)
[2] = read-out: MIC value against Clostridium perfringens, strain A3-2 (A-type)
[3] = read-out: MIC value against Clostridium perfringens, strain A57-1 (A-type)
[4] = read-out: MIC value against Clostridium perfringens, strain B4 (B-type)
[5] = read-out: MIC value against Clostridium perfringens, strain B5 (B-type)
[6] = read-out: MIC value against Clostridium perfringens, strain C3 (C-type)
[7] = read-out: MIC value against Clostridium perfringens, strain C8 (C-type)
[8] = read-out: MIC value against Clostridium perfringens, strain C59-1 (C-type)
[9] = read-out: MIC value against Clostridium perfringens, strain D14B (D-type)
[10] = read-out: MIC value against Clostridium perfringens, strain F5-2 (F-type)
[11] = read-out: MIC value against Clostridium perfringens, strain F6-1 (F-type)
[12] = read-out: MIC value against Clostridium perfringens, strain F6-2 (F-type)
[13] = read-out: MIC value against Clostridium perfringens, strain F6-2-1 (F-type)
[14] = read-out: MIC value against Clostridium perfringens, strain F6-2-2 (F-type)
[15] = read-out: MIC value against Clostridium perfringens, strain F7-1 (F-type)
[16] = read-out: MIC value against Clostridium perfringens, strain F8-1 (F-type)
[17] = read-out: MIC value against Clostridium perfringens, strain H12-1 (H-type)
[18] = read-out: MIC value against Clostridium perfringens, strain H12-2 (H-type)
[19] = read-out: MIC value against Clostridium perfringens, strain H13-1 (H-type)
[20] = read-out: MIC value against Clostridium perfringens, strain H14-1 (H-type)
[21] = read-out: MIC value against Clostridium perfringens, strain H14-2 (H-type)
[22] = read-out: MIC value against Clostridium perfringens, strain H14-4 (H-type)
[23] = read-out: MIC value against Clostridium perfringens, strain H15-1 (H-type)
[24] = read-out: MIC value against Clostridium perfringens, strain H15-2 (H-type)
[25] = read-out: MIC value against Clostridium perfringens, strain H15-3 (H-type)
[26] = read-out: MIC value against Clostridium perfringens, strain H16 (H-type)

| SMILES | MIC50 | MIC [1] | MIC [2] | MIC [3] | MIC [4] | MIC [5] | MIC [6] | MIC [7] | MIC [8] | MIC [9] | MIC [10] | MIC [11] | MIC [12] | MIC [13] | MIC [14] | MIC [15] | MIC [16] | MIC [17] | MIC [18] | MIC [19] | other results |
| --- | --- | --- | --- | --- | --- | --- | --- | --- | --- | --- | --- | --- | --- | --- | --- | --- | --- | --- | --- | --- | --- |
| O=C(Nc1cc(F)c(Cl)c(Cl)c1)c1cc(Cl)ccc1O [BAB166] | 32 µg/mL (≈ 95.6 µM) | – | – | – | – | – | – | – | – | – | – | – | – | – | – | – | – | – | – | – | – |
| CCC[C@@H]1C[C@@H](C(=O)N[C@@H]([C@H]2O[C@H](SC)[C@H](O)[C@@H](O)[C@H]2O)[C@@H](C)O)N(C)C1 [LIN, Lincomycin] | 8 µg/mL (≈ 19.7 µM) | 1 µg/mL (≈ 2.46 µM) | 0.5 µg/mL (≈ 1.23 µM) | 2 µg/mL (≈ 4.92 µM) | > 128 µg/mL | > 128 µg/mL | > 128 µg/mL | 128 µg/mL (≈ 315 µM) | 0.5 µg/mL (≈ 1.23 µM) | 64 µg/mL (≈ 157 µM) | 128 µg/mL (≈ 315 µM) | 32 µg/mL (≈ 78.7 µM) | 32 µg/mL (≈ 78.7 µM) | 128 µg/mL (≈ 315 µM) | 128 µg/mL (≈ 315 µM) | > 128 µg/mL | > 128 µg/mL | 0.5 µg/mL (≈ 1.23 µM) | ≤ 0.25 µg/mL | 4 µg/mL (≈ 9.84 µM) | MIC90: > 128 µg/mL; MIC [20]: 8 µg/mL (≈ 19.7 µM); MIC [21]: 8 µg/mL (≈ 19.7 µM); MIC [22]: 4 µg/mL (≈ 9.84 µM); MIC [23]: ≤ 0.25 µg/mL; MIC [24]: 4 µg/mL (≈ 9.84 µM); MIC [25]: 4 µg/mL (≈ 9.84 µM); MIC [26]: 4 µg/mL (≈ 9.84 µM) |
| O=C(Nc1cc(Cl)cc(Br)c1)c1cc(Cl)ccc1O [BAB142] | 16 µg/mL (≈ 44.3 µM) | – | – | – | – | – | – | – | – | – | – | – | – | – | – | – | – | – | – | – | – |
| CO/N=C(\C(=O)N[C@@H]1C(=O)N2C(C(=O)O)=C(CSC(=O)c3ccco3)CS[C@H]12)c1csc(N)n1 [CEF, Ceftiofur] | – | ≤ 0.25 µg/mL | ≤ 0.25 µg/mL | ≤ 0.25 µg/mL | ≤ 0.25 µg/mL | ≤ 0.25 µg/mL | 1 µg/mL (≈ 1.91 µM) | ≤ 0.25 µg/mL | ≤ 0.25 µg/mL | ≤ 0.25 µg/mL | ≤ 0.25 µg/mL | ≤ 0.25 µg/mL | ≤ 0.25 µg/mL | ≤ 0.25 µg/mL | ≤ 0.25 µg/mL | ≤ 0.25 µg/mL | ≤ 0.25 µg/mL | ≤ 0.25 µg/mL | ≤ 0.25 µg/mL | ≤ 0.25 µg/mL | MIC [20]: ≤ 0.25 µg/mL; MIC [21]: ≤ 0.25 µg/mL; MIC [22]: ≤ 0.25 µg/mL; MIC [23]: ≤ 0.25 µg/mL; MIC [24]: ≤ 0.25 µg/mL; MIC [25]: ≤ 0.25 µg/mL; MIC [26]: ≤ 0.25 µg/mL |
| C[C@H]1c2cccc(O)c2C(=O)C2=C(O)[C@]3(O)C(=O)C(C(N)=O)=C(O)[C@@H](N(C)C)[C@@H]3[C@@H](O)[C@@H]21 [DOX, Doxycycline] | 8 µg/mL (≈ 18 µM) | 8 µg/mL (≈ 18 µM) | 8 µg/mL (≈ 18 µM) | ≤ 0.25 µg/mL | 2 µg/mL (≈ 4.5 µM) | 8 µg/mL (≈ 18 µM) | 16 µg/mL (≈ 36 µM) | ≤ 0.25 µg/mL | ≤ 0.25 µg/mL | 1 µg/mL (≈ 2.25 µM) | 4 µg/mL (≈ 9 µM) | 32 µg/mL (≈ 72 µM) | 16 µg/mL (≈ 36 µM) | 16 µg/mL (≈ 36 µM) | 16 µg/mL (≈ 36 µM) | 8 µg/mL (≈ 18 µM) | 16 µg/mL (≈ 36 µM) | 4 µg/mL (≈ 9 µM) | 4 µg/mL (≈ 9 µM) | 8 µg/mL (≈ 18 µM) | MIC90: 16 µg/mL (≈ 36 µM); MIC [20]: 8 µg/mL (≈ 18 µM); MIC [21]: 8 µg/mL (≈ 18 µM); MIC [22]: 4 µg/mL (≈ 9 µM); MIC [23]: 16 µg/mL (≈ 36 µM); MIC [24]: 16 µg/mL (≈ 36 µM); MIC [25]: 8 µg/mL (≈ 18 µM); MIC [26]: 8 µg/mL (≈ 18 µM) |
| CC[C@H]1OC(=O)C[C@@H](O)[C@H](C)[C@@H](O[C@@H]2O[C@H](C)[C@@H](O)[C@H](N(C)C)[C@H]2O)[C@@H](CCN2C[C@H](C)C[C@H](C)C2)C[C@@H](C)C(=O)/C=C/C(C)=C/[C@@H]1CO[C@@H]1O[C@H](C)[C@@H](O)[C@@H](OC)[C@H]1OC [TMS, Tilmicosin] | 128 µg/mL (≈ 147 µM) | 4 µg/mL (≈ 4.6 µM) | 2 µg/mL (≈ 2.3 µM) | 4 µg/mL (≈ 4.6 µM) | > 128 µg/mL | > 128 µg/mL | > 128 µg/mL | > 128 µg/mL | 2 µg/mL (≈ 2.3 µM) | 128 µg/mL (≈ 147 µM) | 128 µg/mL (≈ 147 µM) | 128 µg/mL (≈ 147 µM) | 128 µg/mL (≈ 147 µM) | > 128 µg/mL | 128 µg/mL (≈ 147 µM) | 64 µg/mL (≈ 73.6 µM) | 128 µg/mL (≈ 147 µM) | 4 µg/mL (≈ 4.6 µM) | 4 µg/mL (≈ 4.6 µM) | 4 µg/mL (≈ 4.6 µM) | MIC90: > 128 µg/mL; MIC [20]: 128 µg/mL (≈ 147 µM); MIC [21]: 128 µg/mL (≈ 147 µM); MIC [22]: 128 µg/mL (≈ 147 µM); MIC [23]: 4 µg/mL (≈ 4.6 µM); MIC [24]: 128 µg/mL (≈ 147 µM); MIC [25]: 4 µg/mL (≈ 4.6 µM); MIC [26]: 128 µg/mL (≈ 147 µM) |
